# Measurements published in ChEMBL document CHEMBL1275271, “QSAR and docking studies of novel antileishmanial diaryl sulfides and sulfonamides” (Eur J Med Chem, 2010).
# Key:
# in vivo = conditions: rat, po
# [1] = Octanol-water partition coefficient, log P of the compound
# [2] = Toxicity in po dosed mouse; conditions: in vivo
# Leishmania donovani = assay: Antileishmanial activity against Leishmania donovani; assay type: functional, organism-based
IC50 (Leishmania donovani),SMILES,LD50 (in vivo),logP [1],LD50 [2]
,Cc1cc(NS(=O)(=O)c2c([N+](=O)[O-])cc([N+](=O)[O-])cc2C(F)(F)F)c(Cl)cc1Cl,350 mg/kg,6.44,650 mg/kg
76 µM,CCCN(CCC)c1c([N+](=O)[O-])cc(S(=O)(=O)Nc2ccc(OC)cc2)cc1[N+](=O)[O-],,,
80 µM,O=[N+]([O-])c1ccc(Oc2c(Cl)cccc2Cl)c([N+](=O)[O-])c1Oc1c(Cl)cccc1Cl,,,
60 µM,O=C1NC(=O)c2cc([N+](=O)[O-])c(Sc3c(Cl)cccc3Cl)cc21,,,
21 µM,Cc1nc(Sc2nccn2-c2cc(Cl)ccc2Cl)c(C(=O)O)cc1C#N,,,
,CCCN(CCC)c1c([N+](=O)[O-])cc(Sc2ccc(OC)cc2)cc1[N+](=O)[O-],1900 mg/kg,6.53,1600 mg/kg
,Cc1cc(S(=O)(=O)c2c([N+](=O)[O-])cc(C(F)(F)F)cc2[N+](=O)[O-])c(Cl)cc1Cl,1200 mg/kg,5.72,1800 mg/kg
,N#Cc1cc([N+](=O)[O-])c(S(=O)(=O)Nc2cccc(F)c2)c([N+](=O)[O-])c1,1200 mg/kg,2.51,1300 mg/kg
,O=[N+]([O-])c1cc(C(F)(F)F)cc([N+](=O)[O-])c1Sc1ccc(Cl)cc1Cl,600 mg/kg,6.73,780 mg/kg
,Cc1cc(S(=O)(=O)c2c([N+](=O)[O-])cc(C#N)cc2[N+](=O)[O-])c(Cl)cc1Cl,1000 mg/kg,4.08,1100 mg/kg
12 µM,CCCCCCN(CCCCCC)c1c([N+](=O)[O-])cc(S(N)(=O)=O)cc1[N+](=O)[O-],,,
,O=[N+]([O-])c1cc([N+](=O)[O-])c(S(=O)(=O)Nc2cccc(F)c2)c(C(F)(F)F)c1,620 mg/kg,4.39,880 mg/kg
59 µM,Cc1cc(Sc2ccc(C(F)(F)F)cc2[N+](=O)[O-])c(Cl)cc1Cl,,,
,CCCN(CCC)c1c([N+](=O)[O-])cc(Sc2cc(C)c(Cl)cc2Cl)cc1[N+](=O)[O-],1600 mg/kg,8.66,1800 mg/kg
98.2 µM,Cc1cc(Sc2ncc(C(F)(F)F)cc2[N+](=O)[O-])c(Cl)cc1Cl,,,
,CCCN(CCC)c1c([N+](=O)[O-])cc(S(N)(=O)=O)cc1[N+](=O)[O-] [ORYZALIN],1400 mg/kg,3.38,1600 mg/kg
32 µM,CCCN(CCC)c1c([N+](=O)[O-])cc(C(N)=O)cc1[N+](=O)[O-],,,

SMILES,IC50 (Leishmania donovani),LD50 (in vivo),logP [1],LD50 [2]
COc1ccc(Sc2c([N+](=O)[O-])cc(C#N)cc2[N+](=O)[O-])cc1,0.67 µM,1400 mg/kg,3.56,1100 mg/kg
